Reference: ChEMBL document CHEMBL1201862, “PubChem BioAssay data set” (2004)
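Protocol summary: plate cells (96-well), add compound at 5 concentrations, incubate 48 h, interpolate endpoints linearly. GI50 = concentration required for 50% inhibition of growth.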 Active and inactive are the calls of the source. Cut-off read from the data, not from the text of the source: active = GI50 up to about 1.1 µM and inactive = higher.

How the values were obtained:
Assay in all cases: NCI tumour cell line growth inhibition, 48 h
786-0 = system: 786-0
A549 = system: A549
BT-549 = system: BT-549
CAKI-1 = system: CAKI-1
CCRF-CEM = system: CCRF-CEM
COLO 205 = system: COLO 205
DU-145 = system: DU-145
EKVX = system: EKVX
HCT-116 = system: HCT-116
HCT-15 = system: HCT-15
HL-60 = system: HL-60
HOP-62 = system: HOP-62
HOP-92 = system: HOP-92
HT-29 = system: HT-29
Hs-578T = system: Hs-578T
IGROV-1 = system: IGROV-1
K562 = system: K562
KM12 = system: KM12
LOX IMVI = system: LOX IMVI
M14 = system: M14
MCF7 = system: MCF7
MDA-MB-231 = system: MDA-MB-231
MDA-MB-435 = system: MDA-MB-435
MOLT-4 = system: MOLT-4
Malme-3M = system: Malme-3M
NCI-H226 = system: NCI-H226
NCI-H23 = system: NCI-H23
NCI-H460 = system: NCI-H460
NCI-H522 = system: NCI-H522
NCI/ADR-RES = system: NCI/ADR-RES
OVCAR-3 = system: OVCAR-3
OVCAR-4 = system: OVCAR-4
OVCAR-5 = system: OVCAR-5
OVCAR-8 = system: OVCAR-8
PC-3 = system: PC-3
RPMI-8226 = system: RPMI-8226
SF-268 = system: SF-268
SF-295 = system: SF-295
SK-MEL-28 = system: SK-MEL-28
SK-MEL-2 = system: SK-MEL-2
SK-MEL-5 = system: SK-MEL-5
SN12C = system: SN12C
SNB-19 = system: SNB-19
SW-620 = system: SW-620
T47D = system: T47D
TK-10 = system: TK-10
U-251 = system: U-251
UACC-257 = system: UACC-257
UACC-62 = system: UACC-62
UO-31 = system: UO-31
A498 = system: A498
ACHN = system: ACHN
HCC 2998 = system: HCC 2998
MDA-N = system: MDA-N
RXF 393 = system: RXF 393
SF-539 = system: SF-539
SK-OV-3 = system: SK-OV-3
SNB-75 = system: SNB-75
SR = system: SR

`CC(C)=NN/C(=N\c1ccc(Cl)cc1)NS(=O)(=O)c1cc2ccccc2s1` was tested, and the GI50 (786-0) was > 100 µM (inactive), the GI50 (A549) was 44 µM (inactive) and the GI50 (BT-549) was 41.9 µM (inactive). The GI50 (CAKI-1) was 97.9 µM (inactive), the GI50 (CCRF-CEM) was 40.4 µM (inactive) and the GI50 (COLO 205) was 46.5 µM (inactive). The GI50 (DU-145) was > 100 µM (inactive), the GI50 (EKVX) was 12 µM (inactive) and the GI50 (HCT-116) was 40.4 µM (inactive). The GI50 (HCT-15) was 71.8 µM, the GI50 (HL-60) was 29.2 µM (inactive) and the GI50 (HOP-62) was > 100 µM (inactive). The GI50 (HOP-92) was 38.9 µM (inactive), the GI50 (HT-29) was 63.1 µM (inactive) and the GI50 (Hs-578T) was > 100 µM (inactive). For the same compound, the GI50 (IGROV-1) was 34.2 µM (inactive), the GI50 (K562) was 23 µM (inactive) and the GI50 (KM12) was 90.4 µM (inactive). For the same compound, the GI50 (LOX IMVI) was 77.3 µM (inactive), the GI50 (M14) was 56.5 µM (inactive) and the GI50 (MCF7) was 53 µM (inactive). For the same compound, the GI50 (MDA-MB-231) was > 100 µM (inactive), the GI50 (MDA-MB-435) was 36.7 µM (inactive) and the GI50 (MOLT-4) was 16.6 µM (inactive). For the same compound, the GI50 (Malme-3M) was 89.9 µM (inactive), the GI50 (NCI-H226) was > 100 µM (inactive) and the GI50 (NCI-H23) was 76 µM (inactive). The GI50 (NCI-H460) was > 100 µM (inactive), the GI50 (NCI-H522) was 38.5 µM (inactive) and the GI50 (NCI/ADR-RES) was 51.1 µM (inactive). The GI50 (OVCAR-3) was 57 µM (inactive), the GI50 (OVCAR-4) was 46.9 µM (inactive) and the GI50 (OVCAR-5) was 32.7 µM (inactive). For the same compound, the GI50 (OVCAR-8) was > 100 µM (inactive), the GI50 (PC-3) was 45.7 µM (inactive) and the GI50 (RPMI-8226) was 29 µM (inactive). For the same compound, the GI50 (SF-268) was 76.7 µM (inactive), the GI50 (SF-295) was 57.5 µM (inactive) and the GI50 (SK-MEL-28) was > 100 µM (inactive). The GI50 (SK-MEL-2) was 65.8 µM (inactive), the GI50 (SK-MEL-5) was > 100 µM (inactive) and the GI50 (SN12C) was 50.7 µM (inactive). For the same compound, the GI50 (SNB-19) was > 100 µM (inactive), the GI50 (SW-620) was > 100 µM (inactive) and the GI50 (T47D) was 21.5 µM (inactive). For the same compound, the GI50 (TK-10) was 87.9 µM (inactive), the GI50 (U-251) was > 100 µM (inactive) and the GI50 (UACC-257) was 55.3 µM (inactive). For the same compound, the GI50 (UACC-62) was > 100 µM (inactive) and the GI50 (UO-31) was 30.5 µM (inactive).
In the case of `CO/N=C(\C(=O)[N-]n1cn[n+](CC(=O)OC(C)(C)C)c1)c1csc(NC(c2ccccc2)(c2ccccc2)c2ccccc2)n1`, the GI50 (786-0) is reported as > 10 µM (inactive), the GI50 (A498) is reported as > 10 µM (inactive) and the GI50 (A549) is reported as > 10 µM (inactive). The GI50 (ACHN) was > 10 µM (inactive), the GI50 (BT-549) was > 10 µM (inactive) and the GI50 (CAKI-1) was > 10 µM (inactive). For the same compound, the GI50 (CCRF-CEM) was > 10 µM (inactive), the GI50 (COLO 205) was > 10 µM (inactive) and the GI50 (DU-145) was > 10 µM (inactive). The GI50 (EKVX) was > 10 µM (inactive), the GI50 (HCC 2998) was > 10 µM (inactive) and the GI50 (HCT-116) was > 10 µM (inactive). The GI50 (HCT-15) was over 10 µM, the GI50 (HL-60) was > 10 µM (inactive) and the GI50 (HOP-62) was > 10 µM (inactive). For the same compound, the GI50 (HOP-92) was > 10 µM (inactive), the GI50 (HT-29) was > 10 µM (inactive) and the GI50 (Hs-578T) was > 10 µM (inactive). The GI50 (IGROV-1) was > 10 µM (inactive), the GI50 (K562) was > 10 µM (inactive) and the GI50 (KM12) was > 10 µM (inactive). The GI50 (LOX IMVI) was > 10 µM (inactive), the GI50 (M14) was > 10 µM (inactive) and the GI50 (MCF7) was > 10 µM (inactive). The GI50 (MDA-N) was > 10 µM (inactive), the GI50 (MOLT-4) was > 10 µM (inactive) and the GI50 (Malme-3M) was > 10 µM (inactive). For the same compound, the GI50 (NCI-H226) was > 10 µM (inactive), the GI50 (NCI-H23) was > 10 µM (inactive) and the GI50 (NCI-H460) was > 10 µM (inactive). The GI50 (NCI-H522) was > 10 µM (inactive), the GI50 (NCI/ADR-RES) was > 10 µM (inactive) and the GI50 (OVCAR-3) was > 10 µM (inactive). For the same compound, the GI50 (OVCAR-4) was > 10 µM (inactive), the GI50 (OVCAR-5) was > 10 µM (inactive) and the GI50 (OVCAR-8) was > 10 µM (inactive). For the same compound, the GI50 (PC-3) was > 10 µM (inactive), the GI50 (RPMI-8226) was > 10 µM (inactive) and the GI50 (RXF 393) was > 10 µM (inactive). For the same compound, the GI50 (SF-268) was > 10 µM (inactive), the GI50 (SF-295) was > 10 µM (inactive) and the GI50 (SF-539) was > 10 µM (inactive). The GI50 (SK-MEL-28) was > 10 µM (inactive), the GI50 (SK-MEL-2) was > 10 µM (inactive) and the GI50 (SK-MEL-5) was > 10 µM (inactive). For the same compound, the GI50 (SK-OV-3) was > 10 µM (inactive), the GI50 (SN12C) was > 10 µM (inactive) and the GI50 (SNB-19) was > 10 µM (inactive). For the same compound, the GI50 (SNB-75) was > 10 µM (inactive), the GI50 (SR) was > 10 µM (inactive) and the GI50 (SW-620) was > 10 µM (inactive). The GI50 (T47D) was > 10 µM (inactive), the GI50 (TK-10) was > 10 µM (inactive) and the GI50 (U-251) was > 10 µM (inactive). For the same compound, the GI50 (UACC-257) was > 10 µM (inactive) and the GI50 (UO-31) was > 10 µM (inactive).
